Experimental data taken from US12728139B2, “Methods of preparing purified atomic quantum clusters” (NANOGAP SUB-NM-POWDER, S.A., priority 2018, dated 2026).

Tests used:
A549 Luc-C8 cells = assay: Luminescent cell viability assay; assay type: cell-based, human; conditions: 24 hours
Protocol: Data represent mean±SD of 2 independent experiments with 3 replicas per experiment. Mann Whitney test ((*) p<0.01).
After that, treatments were removed and 20 μL of lysis buffer (Promega) added to wells and incubated for 30 minutes, shacking. Lysates were then transferred to 1.5 mL tubes and centrifuged for 15 minutes at high speed.

single nucleosomes = biological target: T1, single nucleosomes (Homo sapiens, UniProt P62805+P68431+Q16778+Q7L7L0); assay: Single-nucleosome destabilization, gel shift assay; assay type: biochemical; conditions: etoposide 60 μM or doxorubicin 20 μM 4 hours; Ag3-AQCs 83 ng/mL 30 minutes
T1 construct: purchased New England Biolabs, Ipswich, USA
Protocol: From each reaction, half of the sample was electrophoresed under non-denaturing conditions, and the gel was stained with ethidium bromide (left, upper panel) and silver (left, lower panel). The remaining portion of the sample was analysed to check that equal amounts of histones were loaded in all cases (right panel). The position of unbound DNA, assembled nucleosomes and histones are indicated. (b) Nucleosomes were incubated with etoposide or doxorubicin as in (a) or the indicated Ag3-AQC dilutions (initial concentration, AQCs 1:10=83 ng/mL). Samples were analysed by native polyacrylamide electrophoresis, and the gel was stained first with ethidium bromide (top) and subsequently with silver (bottom) to visualize histones. This image is representative of two independent experiments.
Single nucleosome preparations were obtained using the Epimark Nucleosome Assembly Kit (New England Biolabs, Ipswich, USA) following the dilution assembly protocol from the manufacturer.
For the gel shift assay, 5% non-denaturing polyacrylamide gels were prepared using TBE buffer. After a 1 hour preliminary run at 100 V, the reactions containing nucleosomes were mixed with DNA loading buffer, and the electrophoresis was performed at 100 V for 2 h. Gels were stained with ethidium bromide to visualize DNA, and the signal was captured using the Gel Doc XR system (Bio-Rad). […]

A549 cells = assay: Quantification of platinum bound to DNA (ICP-MS) in A549 cells; assay type: cell-based, human; conditions: proliferating A549 cells, CDDP 50 μM
Protocol: DNA-bound platinum was assessed as previously described in Comenge et al. PLoS One 2012, 7: e47562. Briefly, 5×10^5 A549, MCF7 or U87-luc cells were seeded in 60 mm diameter plates. […] After the treatment, the cells were washed twice with PBS, trypsinised and centrifuged. The supernatants were removed, and the cell pellets were stored at −20° C. overnight. […] After 24 hours, the animals were sacrificed, and the organs were removed. Small pieces (1-2 mm^3) of tumour (lung) and other organs (heart, liver, kidney, spleen, brain and bone marrow) were separated using a scalpel. From this point, the steps for DNA extraction are common to cells and tissue samples. After freezing overnight, cell or tissue pellets were suspended in 300 μL of lysis buffer (150 mM Tris pH 8; 100 mM EDTA pH 8; 100 mM NaCl; 0.5% SDS) and 10 μL of Proteinase K (20 μg/μL). […] The DNA concentration was determined using a NanoDrop 2000 spectrophotometer (Thermofisher, Spain). […] Finally, the amount of platinum was determined by mass spectrometry using an ICP-MS BRUCKER 820-MS with a low-flow glass Micromist nebulizer and a double-pass spray chamber with a Peltier cooling (3° C.) and quartz torch (Bruker Corp., Billerica, MA, USA).

octamer = conditions: 25° C., ITC and fluorescence; cited from earlier work
A549 proliferating cells = assay: STORM super-resolution imaging of chromatin organization; assay type: cell-based, human; conditions: Ag3-AQCs 55.61 ng/mL or AgNO3 5 μM, 30 min
Protocol: 1.5×10^4 A549 cells were plated on 8-well Lab-tek cover glass chamber (Nunc) and 24 hours later cells were synchronized in S phase by adding 0.8 mM hydroxyurea (H-8627, Sigma) to the culture medium. […] The medium was removed and replaced with complete medium containing EdU (20 μM) for 2 hours. Cells were then fixed and permeabilized with Methanol-Acetone (1:1) solution at 20° C. for 10 minutes and blocked (3% BSA+0.01% Triton X-100) for 1 hour at RT. Finally, cells were washed three times with PBS and stained with Alexa Fluor 647 following the instructions provided by the manufacturer (Click-iT® EdU Alexa Fluor®488 Imaging Kit, Thermo Fisher Scientific).
The chromatin was imaged using a commercial microscope system from Nikon Instruments (NSTORM). […]
STORM images were analysed and rendered as previously described in Bates et al. 2007. […]
Since the labelling density of the EdU was very high, all of the images were roughly normalized to the same number of localizations per μm^2 of the nucleus, by varying the number of frames used in the final reconstructed image. The percentage of non-zero pixels of the reconstructed images was then calculated in ImageJ, and the percentage of nuclear area covered by EdU also calculated. The density of chromatin per μm^2 was extracted by dividing the number of localizations (same for each recorded nucleus) over the chromatin-covered area.

[1] = tested on: A549 orthotopic lung cancer; assay: Orthotopic lung cancer model; conditions: CDDP 4 mg/kg intravenously, up to 37 days
Protocol: (a) Tumour growth measured in vivo by luminescence (IVIS® Spectrum).
A suspension of 1×10^6 non-small cell lung carcinoma luciferase expressing cells (A549 Luc-C8 Bioware® cell line) in PBS (50 μL) was injected through the intercostal space into the left lung of athymic nude mice. During this procedure, mice were anaesthetized using 4% isoflurane inhalation. To follow tumour growth, luciferin was injected into the intraperitoneal cavity at a dose of 150 mg/kg body weight approximately 5 minutes before imaging. Luciferase bioluminescence was imaged under vaporized isofluran anaesthesia using an IVIS® Living Image® System (Caliper Life Sciences, Hopkinton, MA, USA) that allowed monitoring of both the primary tumour growth and cancer cell dissemination in a semi quantitative fashion. After in vivo imaging for several days (up to 37 days), the mice were sacrificed, and protein extracts were obtained from different organs to quantify luciferase activity.

| Compound | IC5 (A549 Luc-C8 cells) [µM] | IC25 (A549 Luc-C8 cells) [µM] | IC50 (A549 Luc-C8 cells) [µM] | IC75 (A549 Luc-C8 cells) [µM] | further results |
| --- | --- | --- | --- | --- | --- |
| O=C1[O][Pt]2([NH][C@@H]3CCCC[C@H]3[NH]2)[O]C1=O [OXA, Oxaliplatin] | 2.5 | 12.5 | 50 | 200 |  |
| COc1cc([C@@H]2c3cc4c(cc3[C@@H](O[C@@H]3O[C@@H]5CO[C@@H](C)O[C@H]5[C@H](O)[C@H]3O)[C@H]3COC(=O)[C@H]23)OCO4)cc(OC)c1O [etoposide] |  |  |  |  | Dissociation of single nucleosomes (single nucleosomes): has no effect |
| N.N.O=C([O-])C1(C(=O)[O-])CCC1.[Pt+2] [CBDCA, Carboplatin] | 0.25 | 0.5 | 1000 | 2000 |  |
| COc1cccc2c1C(=O)c1c(O)c3c(c(O)c1C2=O)C[C@@](O)(C(=O)CO)C[C@@H]3O[C@H]1C[C@H](N)[C@H](O)[C@H](C)O1 [DOX, Doxorubicin] |  |  |  |  | Dissociation of single nucleosomes (single nucleosomes): dissociated nucleosomes; Increase of amount of CDDP bound to DNA on co-administration with CDDP (A549 cells): did not increase CDDP binding to DNA |
| CC[N+](C)(CC)CCC[n+]1c(-c2ccccc2)c2cc(N)ccc2c2ccc(N)cc21.[I-].[I-] [IP, Propidium iodide] |  |  |  |  | Formation constant of complex with octamer (octamer): 140000 M⁻¹ |
| O=[N+]([O-])[O-].[Ag+] [AgNO3, Silver nitrate] |  |  |  |  | Chromatin compaction (STORM images) (A549 proliferating cells): did not affect chromatin compaction |
| [NH2][Pt]([NH2])([Cl])[Cl] [CDDP, Cisplatin] | 5 | 10 | 50 | 100 | Tumour growth in vivo (bioluminescence) [1]: significantly reduced the growth of tumours |
